From ChEMBL document CHEMBL4342404, “Anti-cholinesterase hybrids as multi-target-directed ligands against Alzheimer's disease (1998-2018)” (Bioorg Med Chem, 2019) come the findings set out here.

Series [1] concerns the target T1, Cholinesterase (Homo sapiens, UniProt P06276). In words: Inhibition of human butyrylcholinesterase.
In series [2] the target is T2, Acetylcholinesterase (Homo sapiens, UniProt P22303).
Series [3] has as its target Acetylcholinesterase (Rattus norvegicus) (UniProt P37136). Description: Inhibition of acetylcholinesterase in Wistar rat primary cortical neuron cells assessed as reduction in amyloidbeta40 level at […] incubated for 24 hrs by ELISA relative to control. For orientation: In an ELISA, binding on a coated surface is turned into a signal by an enzyme label.
In series [4] the target is T3, Acetylcholinesterase (Bos taurus, UniProt P23795).
T3 sequence (P23795 whole entry): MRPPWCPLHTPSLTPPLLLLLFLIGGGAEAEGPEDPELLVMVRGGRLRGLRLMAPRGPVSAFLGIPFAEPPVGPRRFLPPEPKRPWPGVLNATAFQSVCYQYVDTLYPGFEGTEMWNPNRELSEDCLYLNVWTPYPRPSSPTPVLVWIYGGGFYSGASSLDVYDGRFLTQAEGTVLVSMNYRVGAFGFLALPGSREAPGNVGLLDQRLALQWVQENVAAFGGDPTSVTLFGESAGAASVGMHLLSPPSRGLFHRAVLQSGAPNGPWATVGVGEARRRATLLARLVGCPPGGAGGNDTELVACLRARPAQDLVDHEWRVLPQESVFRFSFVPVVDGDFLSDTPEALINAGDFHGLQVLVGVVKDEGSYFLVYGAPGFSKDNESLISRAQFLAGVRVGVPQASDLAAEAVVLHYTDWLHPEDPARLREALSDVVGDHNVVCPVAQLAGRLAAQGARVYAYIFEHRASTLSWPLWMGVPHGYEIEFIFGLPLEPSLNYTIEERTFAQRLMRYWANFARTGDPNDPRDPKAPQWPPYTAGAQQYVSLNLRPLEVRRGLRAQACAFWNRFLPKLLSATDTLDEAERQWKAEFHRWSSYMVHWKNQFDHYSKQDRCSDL
Description: Inhibition of bovine erythrocyte acetylcholinesterase using acetylthiocholine as substrate by Ellman's method

The target of series [5] is T4, Acetylcholinesterase (Rattus norvegicus, UniProt P37136).
T4 sequence (P37136 whole entry): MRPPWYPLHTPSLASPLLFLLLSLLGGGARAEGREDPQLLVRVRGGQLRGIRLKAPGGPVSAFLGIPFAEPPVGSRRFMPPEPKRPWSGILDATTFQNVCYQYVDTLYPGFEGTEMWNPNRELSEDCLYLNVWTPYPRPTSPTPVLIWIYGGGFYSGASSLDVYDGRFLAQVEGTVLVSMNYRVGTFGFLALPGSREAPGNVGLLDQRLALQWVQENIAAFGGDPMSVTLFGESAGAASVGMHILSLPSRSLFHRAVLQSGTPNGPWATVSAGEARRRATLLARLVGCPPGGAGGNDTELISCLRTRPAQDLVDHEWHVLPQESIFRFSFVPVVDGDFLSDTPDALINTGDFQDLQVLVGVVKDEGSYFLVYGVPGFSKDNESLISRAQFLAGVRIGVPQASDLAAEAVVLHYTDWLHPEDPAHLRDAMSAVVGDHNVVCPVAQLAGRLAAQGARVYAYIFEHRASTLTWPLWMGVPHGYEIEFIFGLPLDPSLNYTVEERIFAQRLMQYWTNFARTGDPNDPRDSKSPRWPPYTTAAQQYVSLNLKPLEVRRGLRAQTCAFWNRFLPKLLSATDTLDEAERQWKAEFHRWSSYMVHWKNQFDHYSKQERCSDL
In words: Antagonist activity at Acetylcholinesterase in Sprague-Dawley rat phrenic nerve-hemidiaphragm assessed as reversal of d-tubocurarine induced neuromuscular blockade after 15 mins. To be noted: read-out: I50.

The target of series [6] is T5, Cholinesterase (Equus caballus, UniProt P81908). In words: Inhibition of equine serum BuChE using butyrylthiocholine iodide as substrate pretreated followed by substrate addition and measured after 2 mins by Ellman's method. A general note: Ellman's reagent forms a yellow product with free thiols.
For series [7], the target named is T1, Cholinesterase. Description: Inhibition of human butyrylcholinesterase using butyrylthiocholine iodide as substrate pretreated followed by substrate addition and measured after 15 mins by Ellman's method.
The species named for another series is Homo sapiens. Description: Selectivity index, ratio of IC50 for human AChE to IC50 for human BuChE.
Series [8] addresses T6, Acetylcholinesterase (Electrophorus electricus, UniProt O42275). Description: Inhibition of electric eel AChE using acetylthiocholine iodide as substrate pretreated followed by substrate addition and measured after 2 mins by Ellman's method.
Series [9] has as its target T2, Acetylcholinesterase. In words: Inhibition of human acetylcholinesterase using acetylthiocholine as substrate pretreated followed by substrate addition and measured after 15 mins by Ellman's method.
A short description of series [10]: Antioxidant activity assessed as AAPH radical scavenging activity measured every min for 60 mins by ORAC-FL assay relative to trolox. The class given is functional.
The nature of series [11]: Cytotoxicity against human HepG2 cells assessed as cell viability at 1000 uM by MTT assay relative to control. The class given is cell-based. To be noted: read-out: Activity. Background: Formazan colour is commonly taken as a measure of viable cells.
For series [12], the target named is T1, Cholinesterase. Description: Inhibition of human serum butyrylcholinesterase using butyrylthiocholine iodide as substrate preincubated for 20 mins followed by substrate addition preincubated for 20 mins followed by substrate addition by Ellman's method.
The target in series [13] is T2, Acetylcholinesterase. Description: Inhibition of human acetylcholinesterase by Ellman's method.
Series [14] addresses Amine oxidase [flavin-containing] B (Homo sapiens, UniProt P27338). In words: Inhibition of recombinant human MAO-B using p-tyramine as substrate preincubated for 15 mins followed by substrate addition and measured over 15 mins by Amplex red reagent/horseradish peroxidase coupled fluorescence assay.
The target of series [15] is T4, Acetylcholinesterase. Description: Inhibition of rat cortex acetylcholinesterase using acetylthiocholine iodide as substrate incubated for 20 mins by Ellman's method.
In series [16] the target is 5-hydroxytryptamine receptor 1A (Homo sapiens, UniProt P08908). In words: Agonist activity at human 5H1A receptor expressed in HEK293 cells incubated for 60 mins by Eu-cAMP tracer based LANCE ultra cAMP assay. Format: functional, cell-based.
The target of series [17] is Sodium-dependent serotonin transporter (Homo sapiens, UniProt P31645). Description: Inhibition of SERT (unknown origin) expressed in HEK293 cells assessed as reduction in 5-HT reuptake incubated for 30 mins followed by centrifugation for 15 secs and measured after 30 mins. The class given is cell-based.
Series [18] concerns the target T1, Cholinesterase. In words: Inhibition of human butyrylcholinesterase by Ellman's method.
The target of series [19] is T6, Acetylcholinesterase.
Description: Inhibition of electric eel AChE using acetylthiocholine iodide as substrate preincubated for 15 mins followed by substrate addition and measured after 15 mins by Ellman's method
For series [20], the target named is T5, Cholinesterase.
Description: Inhibition of equine serum BuChE preincubated for 15 mins followed by substrate addition and measured after 15 mins by Ellman's method
The target of series [21] is Amyloid-beta precursor protein (Homo sapiens) (UniProt P05067). Description: Inhibition of HFIP pretreated amyloid beta (1-42) (unknown origin) self aggregation at 10 uM incubated for 24 hrs by thioflavin T based fluorescence assay relative to control.
Series [22] deals with T2, Acetylcholinesterase. In words: Inhibition of human Acetylcholinesterase using acetylthiocholine as substrate preincubated for 20 mins followed by substrate addition by Ellman's method.
For series [23], the target named is T1, Cholinesterase. Description: Inhibition of human serum butyrylcholinesterase using butyrylthiocholine iodide as substrate preincubated for 20 mins followed by substrate addition by Ellman's method.
The target in series [24] is T7, Beta-secretase 1 (Homo sapiens, UniProt P56817). Description: Inhibition human BACE1 expressed in baculovirus expression system at 10 uM using Panvera peptide as substrate preincubated for 60 mins followed by substrate addition and measured after 60 mins by spectrofluorometric assay relative to control.
In series [25] the target is T2, Acetylcholinesterase. In words: Inhibition of human AChE-induced amyloid beta 1 to 40 (unknown origin) aggregation at 100 uM by thioflavin-T fluorescence method relative to control.
Series [26] addresses T7, Beta-secretase 1. In words: Inhibition human BACE1 expressed in baculovirus expression system using Panvera peptide as substrate preincubated for 60 mins followed by substrate addition and measured after 60 mins by spectrofluorometric assay.
For series [27], the target named is T3, Acetylcholinesterase. This is another data set of the same source.
Description: Inhibition of bovine erythrocyte acetylcholinesterase using acetylthiocholine as substrate incubated for 15 mins by Ellman's method

T1 sequence (P06276 whole entry): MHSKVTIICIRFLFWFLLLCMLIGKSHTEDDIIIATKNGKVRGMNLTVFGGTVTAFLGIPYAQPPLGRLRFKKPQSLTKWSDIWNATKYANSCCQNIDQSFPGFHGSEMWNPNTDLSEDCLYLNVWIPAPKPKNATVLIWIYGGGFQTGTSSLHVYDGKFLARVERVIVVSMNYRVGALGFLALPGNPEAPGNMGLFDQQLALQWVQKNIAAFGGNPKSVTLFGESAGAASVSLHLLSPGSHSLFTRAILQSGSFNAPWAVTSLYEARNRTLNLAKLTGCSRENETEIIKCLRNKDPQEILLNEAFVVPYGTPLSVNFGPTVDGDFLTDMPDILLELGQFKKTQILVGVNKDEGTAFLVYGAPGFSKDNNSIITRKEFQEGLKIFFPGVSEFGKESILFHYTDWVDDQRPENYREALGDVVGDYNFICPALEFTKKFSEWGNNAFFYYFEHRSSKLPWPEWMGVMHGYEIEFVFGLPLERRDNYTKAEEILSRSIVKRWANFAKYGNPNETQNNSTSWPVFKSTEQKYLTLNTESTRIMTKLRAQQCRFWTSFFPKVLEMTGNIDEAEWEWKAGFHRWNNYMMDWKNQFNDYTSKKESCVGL
T6 sequence (O42275 whole entry): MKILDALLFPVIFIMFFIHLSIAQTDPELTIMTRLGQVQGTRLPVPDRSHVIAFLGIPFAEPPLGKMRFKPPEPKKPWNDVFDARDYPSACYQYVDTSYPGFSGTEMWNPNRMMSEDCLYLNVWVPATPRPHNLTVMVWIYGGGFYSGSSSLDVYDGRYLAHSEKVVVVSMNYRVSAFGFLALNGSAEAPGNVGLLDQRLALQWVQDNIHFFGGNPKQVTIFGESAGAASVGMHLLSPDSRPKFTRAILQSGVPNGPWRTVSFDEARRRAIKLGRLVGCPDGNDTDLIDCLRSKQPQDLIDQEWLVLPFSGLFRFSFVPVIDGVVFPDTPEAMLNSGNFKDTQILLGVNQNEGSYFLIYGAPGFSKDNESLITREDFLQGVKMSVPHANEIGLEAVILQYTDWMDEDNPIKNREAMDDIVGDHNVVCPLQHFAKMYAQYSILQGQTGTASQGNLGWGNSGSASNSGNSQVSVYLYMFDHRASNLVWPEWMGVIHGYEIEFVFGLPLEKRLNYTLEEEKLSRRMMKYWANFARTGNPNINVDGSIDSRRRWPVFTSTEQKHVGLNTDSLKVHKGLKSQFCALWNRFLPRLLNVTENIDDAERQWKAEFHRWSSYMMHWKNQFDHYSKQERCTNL
T2 sequence (P22303 whole entry): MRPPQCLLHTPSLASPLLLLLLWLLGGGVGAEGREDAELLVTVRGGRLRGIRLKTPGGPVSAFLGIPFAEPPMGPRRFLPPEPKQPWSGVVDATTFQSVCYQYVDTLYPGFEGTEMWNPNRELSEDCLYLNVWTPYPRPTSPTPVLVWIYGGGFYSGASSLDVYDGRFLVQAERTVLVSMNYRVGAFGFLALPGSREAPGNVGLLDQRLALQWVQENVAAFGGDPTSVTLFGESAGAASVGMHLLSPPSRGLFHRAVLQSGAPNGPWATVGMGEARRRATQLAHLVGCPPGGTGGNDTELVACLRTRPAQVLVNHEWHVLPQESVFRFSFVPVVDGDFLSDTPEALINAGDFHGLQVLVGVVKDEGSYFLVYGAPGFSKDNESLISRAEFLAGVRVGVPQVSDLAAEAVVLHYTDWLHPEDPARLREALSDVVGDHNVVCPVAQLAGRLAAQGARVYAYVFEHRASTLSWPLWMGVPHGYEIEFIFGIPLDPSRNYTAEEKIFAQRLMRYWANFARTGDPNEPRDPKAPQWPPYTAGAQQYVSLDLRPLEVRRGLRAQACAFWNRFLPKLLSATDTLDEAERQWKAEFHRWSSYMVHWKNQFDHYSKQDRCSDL
T5 sequence (P81908 whole entry): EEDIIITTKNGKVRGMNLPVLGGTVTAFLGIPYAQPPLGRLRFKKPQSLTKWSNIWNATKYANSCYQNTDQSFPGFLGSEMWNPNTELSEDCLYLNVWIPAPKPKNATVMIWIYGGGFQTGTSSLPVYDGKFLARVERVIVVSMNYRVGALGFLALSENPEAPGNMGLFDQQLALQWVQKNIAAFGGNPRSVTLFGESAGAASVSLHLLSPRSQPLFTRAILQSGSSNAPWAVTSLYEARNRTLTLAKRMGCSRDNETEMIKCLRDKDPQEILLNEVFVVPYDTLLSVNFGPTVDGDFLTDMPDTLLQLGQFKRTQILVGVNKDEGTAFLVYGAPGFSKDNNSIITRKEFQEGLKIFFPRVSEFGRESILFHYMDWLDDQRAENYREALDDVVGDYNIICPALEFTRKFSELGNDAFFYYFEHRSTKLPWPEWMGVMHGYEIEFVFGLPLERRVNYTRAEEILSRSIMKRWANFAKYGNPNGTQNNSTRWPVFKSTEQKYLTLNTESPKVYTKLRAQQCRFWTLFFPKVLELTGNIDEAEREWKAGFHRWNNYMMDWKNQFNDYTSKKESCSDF
T7 sequence (P56817 whole entry): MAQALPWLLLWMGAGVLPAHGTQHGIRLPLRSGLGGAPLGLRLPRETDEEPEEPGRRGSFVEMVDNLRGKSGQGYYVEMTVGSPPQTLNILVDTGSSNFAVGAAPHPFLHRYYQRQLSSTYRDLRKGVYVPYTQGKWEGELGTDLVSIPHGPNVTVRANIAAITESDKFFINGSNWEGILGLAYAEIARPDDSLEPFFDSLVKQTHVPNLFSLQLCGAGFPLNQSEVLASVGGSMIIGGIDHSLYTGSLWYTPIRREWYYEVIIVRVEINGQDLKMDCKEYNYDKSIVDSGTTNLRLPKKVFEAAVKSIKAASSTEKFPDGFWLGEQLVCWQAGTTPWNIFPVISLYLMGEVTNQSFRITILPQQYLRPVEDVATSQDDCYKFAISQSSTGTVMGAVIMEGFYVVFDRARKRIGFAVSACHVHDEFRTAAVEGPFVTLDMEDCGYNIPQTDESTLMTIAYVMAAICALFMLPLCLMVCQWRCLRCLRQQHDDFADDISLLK
5-hydroxytryptamine receptor 1A, sequence (P08908 whole entry): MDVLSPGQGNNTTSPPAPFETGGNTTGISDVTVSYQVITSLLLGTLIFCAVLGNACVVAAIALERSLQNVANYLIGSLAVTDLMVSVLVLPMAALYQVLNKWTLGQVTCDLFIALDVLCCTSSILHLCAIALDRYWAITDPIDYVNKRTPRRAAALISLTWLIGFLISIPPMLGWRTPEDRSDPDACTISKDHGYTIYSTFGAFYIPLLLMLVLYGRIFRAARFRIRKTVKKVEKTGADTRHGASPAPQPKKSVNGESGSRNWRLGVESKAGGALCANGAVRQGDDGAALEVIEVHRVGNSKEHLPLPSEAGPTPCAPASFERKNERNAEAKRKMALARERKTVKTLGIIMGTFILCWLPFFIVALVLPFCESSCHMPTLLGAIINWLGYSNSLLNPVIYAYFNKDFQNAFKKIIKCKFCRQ
Sodium-dependent serotonin transporter, sequence (P31645 whole entry): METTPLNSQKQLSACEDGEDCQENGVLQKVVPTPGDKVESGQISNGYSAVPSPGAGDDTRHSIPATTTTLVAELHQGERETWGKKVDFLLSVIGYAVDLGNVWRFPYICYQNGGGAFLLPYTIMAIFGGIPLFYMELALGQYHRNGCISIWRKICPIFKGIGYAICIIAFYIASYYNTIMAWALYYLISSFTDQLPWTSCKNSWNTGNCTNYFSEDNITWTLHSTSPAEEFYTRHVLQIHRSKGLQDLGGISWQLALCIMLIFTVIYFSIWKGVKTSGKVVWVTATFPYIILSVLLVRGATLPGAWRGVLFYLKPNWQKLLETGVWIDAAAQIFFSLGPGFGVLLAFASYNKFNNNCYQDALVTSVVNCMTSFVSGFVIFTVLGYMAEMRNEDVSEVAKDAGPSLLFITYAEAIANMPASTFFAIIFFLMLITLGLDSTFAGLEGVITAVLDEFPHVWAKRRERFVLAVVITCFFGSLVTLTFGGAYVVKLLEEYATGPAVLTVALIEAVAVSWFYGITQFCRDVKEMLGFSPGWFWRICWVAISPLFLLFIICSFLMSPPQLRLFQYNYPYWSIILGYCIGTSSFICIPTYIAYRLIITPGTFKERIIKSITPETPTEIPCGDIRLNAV
Amine oxidase [flavin-containing] B, sequence (P27338 whole entry): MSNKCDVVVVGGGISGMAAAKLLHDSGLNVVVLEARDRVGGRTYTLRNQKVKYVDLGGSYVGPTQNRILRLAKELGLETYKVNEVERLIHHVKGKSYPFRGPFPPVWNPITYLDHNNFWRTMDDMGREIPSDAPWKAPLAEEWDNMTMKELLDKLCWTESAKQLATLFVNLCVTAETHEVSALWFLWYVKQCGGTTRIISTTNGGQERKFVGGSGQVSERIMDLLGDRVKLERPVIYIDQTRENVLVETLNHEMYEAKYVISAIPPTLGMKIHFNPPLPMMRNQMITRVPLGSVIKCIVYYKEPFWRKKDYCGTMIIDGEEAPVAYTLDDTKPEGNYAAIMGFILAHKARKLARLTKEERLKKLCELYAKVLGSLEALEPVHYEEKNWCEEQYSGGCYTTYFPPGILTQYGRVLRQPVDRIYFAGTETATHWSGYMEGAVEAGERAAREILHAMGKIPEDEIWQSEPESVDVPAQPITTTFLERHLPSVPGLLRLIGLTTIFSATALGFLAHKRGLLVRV

Turning to `COc1ccc2[nH]cc(CCNC(=O)CN(CCC3CCN(Cc4ccccc4)CC3)C(=O)/C=C/c3ccc(O)c(OC)c3)c2c1`, the IC50 turned out to be 21.8 nM against Cholinesterase [1] and 30.7 nM at Acetylcholinesterase [2].
Consider `CC(C(=O)NCCCCCCNc1c2c(nc3ccccc13)CCCC2)c1ccc(-c2ccccc2)c(F)c1` (stereo not drawn), for which the inhibition in series [3] came out at 31%.
Turning to `CC1=C[C@@H]2Cc3nc4cc(F)ccc4c(N)c3[C@H](C1)C2` (racemic), the IC50 against Acetylcholinesterase [4] amounted to 85 nM; on Acetylcholinesterase [5] it was 8 nM.
For `O=C(/C=C/c1ccc(OCc2ccccc2)cc1)NCCNc1c2c(nc3ccccc13)CCCC2`, the IC50 on Cholinesterase [6] was 42.6 nM; on Cholinesterase [7], 86.1 nM; on Acetylcholinesterase [8], 29.5 nM; on Acetylcholinesterase [9], 60.6 nM. Besides, in the series listed under Homo sapiens, the Selectivity Index was 0.7.
For the molecule `COc1ccc2nc3c(c(NCCCCCCCCN(CC(=O)Nc4ccc5ccccc5c4)C(=O)/C=C/c4ccc(O)c(OC)c4)c2c1)CCCC3`, the Ratio in series [10] was 4.29. The viability at 1000 µM in series [11] turned out to be 59.4%. Further, on Cholinesterase [12], the IC50 worked out at 68.2 nM.
On to `Cc1cc(=O)oc2ccc(OC/C=C/CCn3cnc4c(N5CCCCC5)ncnc43)cc12`, for which the IC50 against Acetylcholinesterase [13] worked out at 11900 nM; in series [14], 6800 nM.
In the case of `N#Cc1ccc2[nH]cc(CCCCN3CCN(c4c5c(nc6ccccc46)CCC5)CC3)c2c1`, the IC50 at Acetylcholinesterase [15] came out at 3320 nM; in [17], 76.3 nM. In series [16], this molecule had an EC50 of 107 nM.
The molecule `Cc1cc(=O)oc2cc(OC/C=C/CCn3cnc4c(N5CCCC5)ncnc43)ccc12` gave an IC50 against Cholinesterase [18] of 4650 nM.
Consider `O=C(NCCc1c[nH]c2ccccc12)c1cc(-c2ccccc2Cl)on1`, for which the IC50 at Acetylcholinesterase [19] was 29500 nM; at Cholinesterase [20], 46100 nM.
For the molecule `c1ccc2c(NCc3ccc(-c4ccc(CNc5c6c(nc7ccccc57)CCCC6)cc4)cc3)c3c(nc2c1)CCCC3`, the inhibition in series [21] came to 75.5%; on Beta-secretase 1 [24], 89.7%; at Acetylcholinesterase [25] it was 61.8%. Further, the IC50 against Acetylcholinesterase [22] came to 3.61 nM; at Cholinesterase [23], 0.86 nM; on Beta-secretase 1 [26] it was 2770 nM.
With `COc1cc(/C=C/C(=O)NCCNc2c3c(nc4ccccc24)CCCC3)ccc1OCc1ccccc1`, the IC50 at Cholinesterase [6] was determined as 52.6 nM; at Cholinesterase [7] it was 55.9 nM; on Acetylcholinesterase [8] it was 15.8 nM; on Acetylcholinesterase [9], 55.1 nM. In addition, the Selectivity Index in the series listed under Homo sapiens was found to be 1.
`CC1=CC2Cc3nc4cc(Cl)ccc4c(N)c3C(C1)C2` (single isomer, unassigned; (+)) [HUPRINE Y] came in with an IC50 on Acetylcholinesterase [27] of 36.1 nM.

For orientation: inhibition means the share of the control response that was lost under treatment. Broadly, the EC50 is the midpoint of the concentration-response curve. Higher therefore signals a need for much substance.
